Data published in the supplement of paper PMC10307832.

Assays:
Assay in all cases: relative viability (nuclei count vs DMSO), 5 days (fraction); higher = more cells survive
QS11 + Navitoclax = compound: C1CC2=C(C1)C=C(C=C2)OC3=NC(=C4C(=N3)N(C=N4)CC5=CC=C(C=C5)C6=CC=CC=C6)N[C@@H](CC7=CC=CC=C7)CO [QS11] + CC1(C)CCC(c2ccc(Cl)cc2)=C(CN2CCN(c3ccc(C(=O)NS(=O)(=O)c4ccc(N[C@H](CCN5CCOCC5)CSc5ccccc5)c(S(=O)(=O)C(F)(F)F)c4)cc3)CC2)C1 [Navitoclax] (partner 0.5 µM)
How it was run: (§1)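 Relative viability was taken as the ratio of nuclei in treated wells to nuclei in vehicle wells. Lung cancer cell lines in 1536-well plates received compounds by pin tool one day after seeding, either one drug alone or a fixed anchor-drug dose plus five library-drug doses (not always all listed) in √10 steps. Nuclei were counted on 4× images after 5 days of treatment, and values are medians of duplicate plates.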

AZ628 + Pemetrexed = compound: CC1=C(C=C(C=C1)NC(=O)C2=CC(=CC=C2)C(C)(C)C#N)NC3=CC4=C(C=C3)N=CN(C4=O)C [AZ628] + Nc1nc2[nH]cc(CCc3ccc(C(=O)N[C@@H](CCC(=O)O)C(=O)O)cc3)c2c(=O)[nH]1 [Pemetrexed] (partner 0.2 µM)
How it was run: as §1

AZ628 + Decitabine = compound: CC1=C(C=C(C=C1)NC(=O)C2=CC(=CC=C2)C(C)(C)C#N)NC3=CC4=C(C=C3)N=CN(C4=O)C [AZ628] + Nc1ncn([C@H]2C[C@H](O)[C@@H](CO)O2)c(=O)n1 [Decitabine] (partner 2 µM)
How it was run: as §1

[1] = compound: C[As](C)SC[C@H](NC(=O)CC[C@H](N)C(=O)O)C(=O)NCC(=O)O [Darinaparsin] + CCNC(=O)c1noc(-c2cc(C(C)C)c(O)cc2O)c1-c1ccc(CN2CCOCC2)cc1 [Luminespib] (partner 0.01 µM)
How it was run: as §1

Cell Line: LCLC-97TM1
- relative viability (QS11 + Navitoclax; first compound 0.08 µM): 0.414
- relative viability (QS11 + Navitoclax; first compound 0.253 µM): 0.328
- relative viability (QS11 + Navitoclax; first compound 0.8 µM): 0.387
- relative viability (QS11 + Navitoclax; first compound 2.53 µM): 0.503
- relative viability (QS11 + Navitoclax; first compound 8 µM): 0.432
- relative viability (AZ628 + Pemetrexed; first compound 0.08 µM): 0.246
- relative viability (AZ628 + Pemetrexed; first compound 0.253 µM): 0.255
- relative viability (AZ628 + Pemetrexed; first compound 0.8 µM): 0.238
- relative viability (AZ628 + Pemetrexed; first compound 2.53 µM): 0.229
- relative viability (AZ628 + Pemetrexed; first compound 8 µM): 0.121
- relative viability (AZ628 + Decitabine; first compound 0.08 µM): 0.276
- relative viability (AZ628 + Decitabine; first compound 0.253 µM): 0.265
- relative viability (AZ628 + Decitabine; first compound 0.8 µM): 0.257
- relative viability (AZ628 + Decitabine; first compound 2.53 µM): 0.199
- relative viability (AZ628 + Decitabine; first compound 8 µM): 0.13
- relative viability ([1]; first compound 0.08 µM): 0.939
- relative viability ([1]; first compound 0.8 µM): 0.659
- relative viability ([1]; first compound 2.53 µM): 0.699
- relative viability ([1]; first compound 8 µM): 0.888
